Measurements as given in PubChem BioAssay (NCI).
“And” between values parts separate entries of the source, which are not always exact repeats. Equal values may be shown once.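 Step 1: Grow cells in 96-well plates. Step 2: Expose to compound for 48 hours at 5 concentrations. Step 3: Interpolate endpoints linearly; if unreached, use highest concentration. GI50 = concentration required for 50% inhibition of growth. TGI is the concentration that stops growth completely.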 *1 amine or outer side, *2 acyl side, *3 side chain or, on linkers, in order; H or OH if unused. Where a SMILES comes first, the peptide text is derived from it. Bridges are numbered along the chain shown (N, C = ends). [ ]: non-standard residue; d: D form. The star is where a group is joined. Phe(3,5-F2) = N[C@@H](Cc1cc(F)cc(F)c1)C(=O)O; Pro(4R-Me) = C[C@H]1CN[C@H](C(=O)O)C1; aThr = C[C@H](O)[C@H](N)C(=O)O; Pip = O=C(O)[C@@H]1CCCCN1; X10 = Fc1cc(C2CC2)ccc1N*; CO = O=C([*:1])[*:2]

Assays:
Test in all cases: NCI tumour cell line growth inhibition, 48 h
[1] = test system: DLD-1 colon
[2] = test system: MDA-N
[3] = test system: DMS 273 small cell lung
[4] = test system: HOP-18 NSCLC
[5] = test system: SNB-78 CNS
[6] = test system: HS 578T breast
[7] = test system: XF 498 CNS
[8] = test system: LXFL 529 NSCLC
[9] = test system: RXF-631 renal

O=C1/C(=C/c2ccc(O)c(O)c2)CCC/C1=C\c1ccc(O)c(O)c1
TGI [1]: 7.22 µM | TGI [2]: 14.6 µM | TGI [3]: 7.2 µM | TGI [4]: 10.4 µM | TGI [5]: 8.19 µM | TGI [6]: > 39.9 µM | TGI [7]: 9.93 µM

CC(=O)[CH-]C(=O)c1ccccc1.CC(=O)[CH-]C(=O)c1ccccc1.CN(C)c1ccc([O-])cc1.CN(C)c1ccc([O-])cc1.Cl.[Ti+4]
GI50 [1]: 15.6 µM | TGI [1]: > 31.6 µM | GI50 [8]: 16 µM | TGI [8]: > 31.6 µM | GI50 [4]: 23.1 µM | TGI [4]: > 31.6 µM

CCN1/C(=C\c2cc[n+](CC)c3ccccc23)C=Cc2ccccc21
GI50 [6]: 0.33 µM | TGI [6]: 15.8 µM

COC1/C=C/OC2(C)Oc3c(C)c(O)c4c(O)c(c(/C=N/Nc5ccc([N+](=O)[O-])cc5[N+](=O)[O-])c(O)c4c3C2=O)NC(=O)C(C)=C/C=C/C(C)C(O)C(C)C(O)C(C)C(OC(C)=O)C1C (stereo not given)
GI50 [6]: 0.97 µM | TGI [6]: 3.59 µM

O=C(Nc1nc2ccc([N+](=O)[O-])cc2s1)C(=O)C(C1OC(=O)c2ccccc21)[N+](=O)[O-] (stereo not given)
TGI [9]: > 100 µM | TGI [1]: > 100 µM | TGI [8]: > 100 µM | TGI [5]: > 100 µM | TGI [7]: > 100 µM

CCC(=O)[C@H](C)[C@@H](OC(=O)[C@H](C)CC)[C@H](C)[C@H]1OC(CC)=C(C)C(=O)[C@@H]1C
GI50 [6]: 30.3 µM | TGI [6]: 89.3 µM

CN1CCCCC1CCN1c2ccccc2Sc2ccc(Cl)cc21 (stereo not given)
GI50 [6]: 2.25 µM | TGI [6]: 8.79 µM

O=C(Nc1ccc(F)cc1)Nc1ccc(Cl)c([N+](=O)[O-])c1
GI50 [6]: 4.02 µM | TGI [6]: 24.2 µM

Nc1ccccc1S(=O)(=O)N(CC(=O)O)c1ccccc1
TGI [9]: > 100 µM | TGI [1]: > 100 µM | TGI [8]: > 100 µM | TGI [3]: > 100 µM | TGI [4]: > 100 µM | TGI [7]: > 100 µM

COc1cccc(-c2cc(-c3cccc(NS(C)(=O)=O)c3)nc(N)c2C#N)c1O
GI50 [6]: 0.0901 µM | TGI [6]: 4.42 µM

Nc1ccccc1C#C/C=C\C#Cc1ccccc1OC(F)(F)F
GI50 [6]: 4.08 µM | TGI [6]: 22 µM

CCCCCCCCCCCCCC(=O)OC(/C=C/C(C)C)C(O)C(O)C(OC)C(=O)NC1CCCCN(C)C1=O (stereo not given)
GI50 [9]: > 49 µM | TGI [9]: 7.52 µM and > 49 µM | GI50 [1]: > 49 µM | TGI [1]: 6.56 µM and > 49 µM | GI50 [8]: > 49 µM | TGI [8]: 6.89 µM and > 49 µM | GI50 [3]: > 49 µM | TGI [3]: 4.98 µM and > 49 µM | GI50 [4]: 6.44 µM | TGI [4]: 9.84 µM and > 49 µM | TGI [5]: 14.8 µM

C=CCOc1ccc2c(C)cc(=O)oc2c1C
TGI [2]: > 100 µM | TGI [6]: 77.1 µM

CCC[CH2][Sn]([CH2]CCC)([S]c1cccc2cccnc12)[S]c1cccc2cccnc12
GI50 [1]: 0.172 µM | TGI [1]: 0.382 µM | GI50 [8]: 0.039 µM | TGI [8]: 0.163 µM | GI50 [3]: 0.177 µM | TGI [3]: 0.432 µM | GI50 [4]: 0.264 µM | TGI [4]: 0.605 µM | GI50 [5]: 0.203 µM | TGI [5]: 0.825 µM | GI50 [7]: 0.101 µM | TGI [7]: 0.26 µM

COc1cc2c(c3oc4c(O)cccc4c(=O)c13)CC(C(C)(O)CO)O2 (stereo not given)
TGI [2]: > 100 µM | TGI [6]: > 100 µM

Cc1nc2sccn2c1-c1csc(Nc2ccccc2Cl)n1
GI50 [6]: 6.92 µM | TGI [6]: > 100 µM

O=C(O)CCNCCCNCCC(=O)O
TGI [9]: > 100 µM | TGI [1]: > 100 µM | TGI [8]: > 100 µM | TGI [3]: > 100 µM | TGI [4]: > 100 µM | TGI [7]: > 100 µM

Cc1c(C(=O)CC(=O)C(=O)Nc2ccccc2C(F)(F)F)[n+](=O)c2ccccc2n1[O-]
TGI [8]: 62.1 µM | TGI [3]: 59.9 µM | TGI [4]: 37 µM | TGI [5]: > 100 µM | TGI [7]: 42 µM

CO/C(=N\N=C\c1ccc(C(F)(F)F)cc1)c1ccncc1
TGI [2]: > 10 µM

Cc1cc(-c2nc(C(=O)Nc3cc4oc(N5CCOCC5)nc4nc3N3CC[C@@H](O)C3)co2)ccn1
GI50 [6]: 22.2 µM | TGI [6]: > 100 µM

O=C(Nc1ccc(-n2ccc3c(NC(=O)c4ccccc4)nccc32)cc1)c1ccc(Cl)c(C(F)(F)F)c1
GI50 [6]: 4.88 µM | TGI [6]: 20 µM

COC(=O)CC[N+]1=CCC(c2ccccc2)(c2ccccc2)O1
TGI [2]: > 100 µM | TGI [6]: > 100 µM

OCc1cc2ccccc2c2c3c(ccc12)OCO3
GI50 [6]: 29.8 µM | TGI [6]: 144 µM

Cc1cnc(NCCCN(C)C)c2c1[nH]c1ccc3cc(O)ccc3c12
TGI [1]: 3.7 µM | TGI [8]: 1.76 µM | TGI [2]: 2.21 µM | TGI [3]: 1.24 µM | TGI [4]: 5.97 µM | TGI [5]: 3.86 µM | TGI [6]: 2.22 µM | TGI [7]: 0.806 µM

Cc1ccnc2c1ccc1c(C)ccnc12
GI50 [6]: 3.95 µM | TGI [6]: > 100 µM

FC(F)(F)c1cccc(Nc2nc(-c3ccccc3)nc3ncccc23)c1
GI50 [6]: 3.49 µM | TGI [6]: 18.1 µM

COc1ccc2c(c1)sc1nc(-c3ccccc3)c(-c3cccc4ccccc34)n12
TGI [6]: > 100 µM

C[C@@H]1C[C@H]2C(=O)O[C@@H](C)[C@H](NC(=O)[C@H](Cc3cc(F)cc(F)c3)NC(=O)Nc3ccc(C4CC4)cc3F)C(=O)N3CCC[C@H]3C(=O)N3CCCC[C@H]3C(=O)N[C@@H](C)C(=O)N2C1 ({X10-CO}-[Phe(3,5-F2)][aThr]P[Pip]A[Pro(4R-Me)]; ester 2-C)
GI50 [6]: 0.0409 µM | TGI [6]: 3.94 µM

NS(=O)(=O)OC[C@@H]1C[C@@H](n2ccc3c(NC4CCc5ccccc54)ncnc32)C[C@@H]1O (stereo not given in full)
GI50 [6]: 16.8 µM | TGI [6]: 61.3 µM

COC([CH2][Hg][n]1cnc2c1c(=O)n(C)c(=O)n2C)CN1C(=O)c2ccccc2S1(=O)=O (stereo not given)
GI50 [2]: > 100 µM | TGI [2]: > 100 µM | GI50 [6]: > 100 µM | TGI [6]: > 100 µM

Fc1[nH]nc2ccc([C@@H]3Nc4ccc5[nH]ncc5c4[C@H]4C5CCC(C5)[C@@H]34)cc12 (stereo not given in full)
GI50 [6]: 1.4 µM | TGI [6]: 13.6 µM

CCN(CC)N=Nc1c(C(N)=O)n[nH]c1C
TGI [6]: > 100 µM

COc1cc(/C=N\NC(=O)CN2CCN(c3cc4c(cc3F)c(=O)c(C(=O)N/N=C/c3cc(OC)c(OC)c(OC)c3)cn4C3CC3)CC2)cc(OC)c1OC
GI50 [6]: 0.308 µM

CC(=O)OC1OC([C@@H]2c3cccc(O)c3C(=O)c3c(O)cc(C)cc32)C(O)C(O)C1O (stereo not given in full)
GI50 [6]: < 0.0103 µM

COc1ccccc1N1C(=O)C2c3[nH]c4ccccc4c3C3CCC(C(C)(C)C)CC3C2C1=O (stereo not given)
TGI [1]: > 100 µM | TGI [8]: > 100 µM | TGI [3]: > 100 µM | TGI [4]: > 100 µM | TGI [5]: > 100 µM | TGI [7]: > 100 µM

CNC(=S)OCCC(C)CCCC(C)C (stereo not given)
TGI [1]: 28.9 µM | TGI [8]: 30.4 µM | TGI [3]: 30.7 µM | TGI [4]: 31.3 µM | TGI [5]: 34.5 µM | TGI [7]: 31.1 µM

Cc1ccc(Cl)c2c(N=Nc3ccccc3[N+](=O)[O-])c(O)[nH]c12
TGI [2]: > 100 µM | TGI [6]: 70.2 µM

NS(=O)(=O)c1ccc2c(c1)OCCOCCOCCOCCO2
TGI [6]: > 100 µM

Nc1c(C(=O)c2cccc(CCS(N)(=O)=O)c2)cnn1-c1ccc(F)cc1
GI50 [6]: > 25 µM | TGI [6]: > 25 µM
